# Molecular target: PD-1/PD-L1 protein/protein interaction (Homo sapiens (Human), UniProt Q9NZQ7)
# Experiment: PD-1/PD-L1 Homogeneous Time-Resolved Fluorescence (HTRF) binding assay
# Conditions: recombinant human PD-L1 (19-238) His-tag 10 nM, human PD-1 (25-167) Fc tag 3 nM, 25° C., PBS pH 7.4
# Description: Example A. PD-1/PD-L Homogeneous Time-Resolved Fluorescence (HTRF) Binding Assay
# The assays were conducted in a standard black 384-well polystyrene plate with a final volume of 20 μL. Inhibitors were first serially diluted in DMSO and then added to the plate wells before the addition of other reaction components. The final concentration of DMSO in the assay was 1%. The assays were carried out at 25° C. in the PBS buffer (pH 7.4) with 0.05% Tween-20 and 0.1% BSA. Recombinant human PD-L1 protein (19-238) with a His-tag at the C-terminus was purchased from AcroBiosystems (PD1-H5229). Recombinant human PD-1 protein (25-167) with Fc tag at the C-terminus was also purchased from AcroBiosystems (PD1-H5257). PD-L1 and PD-1 proteins were diluted in the assay buffer and 10 μL was added to the plate well. Plates were centrifuged and proteins were preincubated with inhibitors for 40 minutes. The incubation was followed by the addition of 10 μL of HTRF detection buffer supplemented with Europium cryptate-labeled anti-human IgG (PerkinElmer-AD0212) specific for Fe and anti-His antibody conjugated to SureLight®-Allophycocyanin (APC, PerkinElmer-AD0059H). After centrifugation, the plate was incubated at 25° C. for 60 min. before reading on a PHERAstar FS plate reader (665 nm/620 nm ratio). Final concentrations in the assay were—3 nM PD1, 10 nM PD-L1, 1 nM europium anti-human IgG and 20 nM anti-His-Allophycocyanin.IC50 determination was performed by fitting the curve of percent control activity versus the log of the inhibitor concentration using the GraphPad Prism 5.0 software.
# Sequence of PD-1/PD-L1 protein/protein interaction (Q9NZQ7 19-238): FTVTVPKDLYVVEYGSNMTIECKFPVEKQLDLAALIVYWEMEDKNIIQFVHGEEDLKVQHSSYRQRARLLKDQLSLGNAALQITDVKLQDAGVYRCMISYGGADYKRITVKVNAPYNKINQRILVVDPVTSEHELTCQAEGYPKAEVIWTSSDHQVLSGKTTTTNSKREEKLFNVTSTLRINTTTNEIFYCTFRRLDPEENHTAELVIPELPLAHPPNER
row,Structure (SMILES),IC50 [nM]
1,"Cc1c(-c2ccccc2)cccc1-c1cc2ccc(CNCCO)nc2o1 [Example 1, 2-({[2-(2-methylbiphenyl-3-yl)furo[2,3-b]pyridin-6-yl]methyl}amino)ethanol]",10 to 100
2,"Cc1c(-c2ccccc2)cccc1-c1cc2nc(CNCCO)ccc2o1 [Example 21, 2-({[2-(2-methylbiphenyl-3-yl)furo[3,2-b]pyridin-5-yl]methyl}amino)ethanol]",10 to 100
3,"Cc1c(-c2ccccc2)cccc1-c1nc2cc(CNCCO)c(OCC#N)cc2o1 [Example 27, {[5-{[(2-hydroxyethyl)amino]methyl}-2-(2-methylbiphenyl-3-yl)-1,3-benzoxazol-6-yl]oxy}acetonitrile]",≤ 10
4,"Cc1c(-c2ccccc2)cccc1-c1nc2cc(CNCCO)c(OCCN3CCOCC3)cc2o1 [Example 32, 2-({[2-(2-methylbiphenyl-3-yl)-6-(2-morpholin-4-ylethoxy)-1,3-benzoxazol-5-yl]methyl}amino)ethanol]",≤ 10
5,"Cc1c(-c2ccccc2)cccc1-c1nc2cc(CNCCO)cc(C)c2o1 [Example 12, 2-({[7-methyl-2-(2-methylbiphenyl-3-yl)-1,3-benzoxazol-5-yl]methyl}amino)ethanol]",≤ 10
6,"Cc1c(-c2ccccc2)cccc1-c1nc2cc(CNCCO)c(OCCCC#N)c(C)c2o1 [Example 34, 4-{[5-{[(2-hydroxyethyl)amino]methyl}-7-methyl-2-(2-methylbiphenyl-3-yl)-1,3-benzoxazol-6-yl]oxy}butanenitrile]",10 to 100
7,"Cc1c(-c2ccccc2)cccc1-c1nc2c(C)cc(CNCCO)cc2s1 [Example 23, 2-({[4-methyl-2-(2-methylbiphenyl-3-yl)-1,3-benzothiazol-6-yl]methyl}amino)ethanol]",10 to 100
8,"Cc1c(-c2ccccc2)cccc1-c1cc2cc(CNCCO)nc(C)c2o1 [Example 5, 2-({[7-methyl-2-(2-methylbiphenyl-3-yl)furo[2,3-c]pyridin-5-yl]methyl}amino)ethanol]",10 to 100
9,"Cc1c(-c2ccccc2)cccc1-c1nc2cc(CNCCO)c(OCc3ccccn3)cc2o1 [Example 30, 2-({[2-(2-methylbiphenyl-3-yl)-6-(pyridin-2-ylmethoxy)-1,3-benzoxazol-5-yl]methyl}amino)ethanol]",≤ 10
10,"Cc1c(-c2ccccc2)cccc1-c1nc2cc(CNCCO)ccc2o1 [Example 8, 2-({[2-(2-methylbiphenyl-3-yl)-1,3-benzoxazol-5-yl]methyl}amino)ethanol]",≤ 10
11,"Cc1cc(CNCCO)cc2nc(-c3cccc(-c4ccccc4)c3C#N)oc12 [Example 14, 3-(5-{[(2-hydroxyethyl)amino]methyl}-7-methyl-1,3-benzoxazol-2-yl)biphenyl-2-carbonitrile]",≤ 10
12,"Cc1c(C2=CCCCC2)cccc1-c1nc2cc(CNCCO)c(OCC#N)cc2o1 [Example 40, [(2-(3-cyclohex-1-en-1-yl-2-methylphenyl)-5-{[(2-hydroxyethyl)amino]methyl}-1,3-benzoxazol-6-yl)oxy]acetonitrile]",10 to 100
13,"Cc1c(-c2ccccc2)cccc1-c1cc2nc(CNCCO)cnc2o1 [Example 24, 2-({[6-(2-methylbiphenyl-3-yl)furo[2,3-b]pyrazin-2-yl]methyl}amino)ethanol]",10 to 100
14,"N#CCOc1cc2oc(-c3cccc(-c4ccc5c(c4)OCCO5)c3C#N)nc2cc1CN1CCCC[C@H]1C(=O)O [Example 37, (2S)-1-{[2-[2-cyano-3-(2,3-dihydro-1,4-benzodioxin-6-yl)phenyl]-6-(cyanomethoxy)-1,3-benzoxazol-5-yl]methyl}piperidine-2-carboxylic Acid]",10 to 100
15,"Cc1c(-c2ccccc2)cccc1-c1cc2cc(CNCCO)cnc2o1 [Example 10, 2-({[2-(2-methylbiphenyl-3-yl)furo[2,3-b]pyridin-5-yl]methyl}amino)ethanol]",10 to 100
16,"COc1cc2oc(-c3cccc(-c4ccccc4)c3C)nc2cc1CNCCO [Example 31, 2-({[6-methoxy-2-(2-methylbiphenyl-3-yl)-1,3-benzoxazol-5-yl]methyl}amino)ethanol]",≤ 10
17,"Cc1c(-c2ccccc2)cccc1-c1nc2cc(CN3CCCC[C@H]3C(=O)O)c(OCCCC#N)cc2o1 [Example 28, (2S)-1-{[6-(3-cyanopropoxy)-2-(2-methylbiphenyl-3-yl)-1,3-benzoxazol-5-yl]methyl}piperidine-2-carboxylic Acid]",≤ 10
18,"Cc1c(-c2ccc3c(c2)OCCO3)cccc1-c1nc2cc(CNCCO)cc(C)c2o1 [Example 16, 2-[({2-[3-(2,3-dihydro-1,4-benzodioxin-6-yl)-2-methylphenyl]-7-methyl-1,3-benzoxazol-5-yl}methyl)amino]ethanol]",≤ 10
19,"Cc1c(-c2ccccc2)cccc1-c1cc2nc(CNCCO)cc(C)c2o1 [Example 3, 2-({[7-methyl-2-(2-methylbiphenyl-3-yl)furo[3,2-b]pyridin-5-yl]methyl}amino)ethanol]",10 to 100
20,"Cc1c(-c2ccccc2)cccc1-c1nc2cc(CNCCO)ncc2o1 [Example 33, 2-({[2-(2-methylbiphenyl-3-yl)[1,3]oxazolo[5,4-c]pyridin-6-yl]methyl}amino)ethanol]",10 to 100
21,"Cc1cc(CN2CCCC[C@H]2C(=O)O)cc2nc(-c3cccc(-c4ccc5c(c4)OCCO5)c3C#N)oc12 [Example 17, (2S)-1-({2-[2-cyano-3-(2,3-dihydro-1,4-benzodioxin-6-yl)phenyl]-7-methyl-1,3-benzoxazol-5-yl}methyl)piperidine-2-carboxylic Acid]",10 to 100
22,"Cc1c(-c2ccc3c(c2)OCCO3)cccc1-c1nc2cc(CN3CCCC[C@H]3C(=O)O)cc(C)c2o1 [Example 15, (2S)-1-({2-[3-(2,3-dihydro-1,4-benzodioxin-6-yl)-2-methylphenyl]-7-methyl-1,3-benzoxazol-5-yl}methyl)piperidine-2-carboxylic Acid]",10 to 100
23,"Cc1c(-c2nc3cc(CNCCO)c(OCC#N)cc3o2)cccc1-c1ccccc1F [Example 39, [(2-(2′-fluoro-2-methylbiphenyl-3-yl)-5-{[(2-hydroxyethyl)amino]methyl}-1,3-benzoxazol-6-yl)oxy]acetonitrile]",≤ 10

# Further lines, results first:
row,IC50 [nM],Structure (SMILES)
1,100 to 1000,"Cc1c(-c2ccccc2)cccc1-c1cc2nc(CN3CCCC[C@H]3C(=O)O)cnc2o1 [Example 25, (2S)-1-{[6-(2-methylbiphenyl-3-yl)furo[2,3-b]pyrazin-2-yl]methyl}piperidine-2-carboxylic Acid]"
2,100 to 1000,"Cc1c(-c2ccccc2)cccc1-c1cc2cc(CN3CCCC[C@H]3C(=O)O)cnc2o1 [Example 9, (2S)-1-{[2-(2-methylbiphenyl-3-yl)furo[2,3-b]pyridin-5-yl]methyl}piperidine-2-carboxylic Acid]"
3,10 to 100,"Cc1cc(CN2CCCC[C@H]2C(=O)O)cc2nc(-c3cccc(-c4ccccc4)c3C#N)oc12 [Example 13, (2S)-1-{[2-(2-cyanobiphenyl-3-yl)-7-methyl-1,3-benzoxazol-5-yl]methyl}piperidine-2-carboxylic Acid]"
4,10 to 100,"Cc1c(-c2ccccc2)cccc1-c1nc2c(C)cc(CN3CCCC[C@H]3C(=O)O)cc2s1 [Example 22, (2S)-1-{[4-methyl-2-(2-methylbiphenyl-3-yl)-1,3-benzothiazol-6-yl]methyl}piperidine-2-carboxylic Acid]"
5,≤ 10,"Cc1c(-c2ccccc2)cccc1-c1nc2cc(CN3CCCC[C@H]3C(=O)O)c(OCC#N)cc2o1 [Example 26, (2S)-1-{[6-(cyanomethoxy)-2-(2-methylbiphenyl-3-yl)-1,3-benzoxazol-5-yl]methyl}piperidine-2-carboxylic Acid]"
6,100 to 1000,"Cc1c(-c2ccccc2)cccc1-c1cc2nc(CN3CCCC[C@H]3C(=O)O)ccc2o1 [Example 20, (2S)-1-{[2-(2-methylbiphenyl-3-yl)furo[3,2-b]pyridin-5-yl]methyl}piperidine-2-carboxylic Acid]"
7,10 to 100,"Cc1c(-c2ccccc2)cccc1-c1cc2nc(CN3CCCC[C@H]3C(=O)O)cc(C)c2o1 [Example 4, (2S)-1-{[7-methyl-2-(2-methylbiphenyl-3-yl)furo[3,2-b]pyridin-5-yl]methyl}piperidine-2-carboxylic Acid]"
8,100 to 1000,"Cc1c(-c2ccccc2)cccc1-c1cc2ccc(CN3CCCC[C@H]3C(=O)O)nc2o1 [Example 2, (2S)-1-{[2-(2-methylbiphenyl-3-yl)furo[2,3-b]pyridin-6-yl]methyl}piperidine-2-carboxylic Acid]"
9,10 to 100,"Cc1c(-c2ccccc2)cccc1-c1nc2ccc(CN3CCCC[C@H]3C(=O)O)cc2o1 [Example 38, (2S)-1-{[2-(2-methylbiphenyl-3-yl)-1,3-benzoxazol-6-yl]methyl}piperidine-2-carboxylic Acid]"
10,10 to 100,"Cc1c(-c2ccccc2)cccc1-c1cc2cc(CN3CCCC[C@H]3C(=O)O)nc(C)c2o1 [Example 6, (2S)-1-{[7-methyl-2-(2-methylbiphenyl-3-yl)furo[2,3-c]pyridin-5-yl]methyl}piperidine-2-carboxylic Acid]"
